Reference: patent publication US5124158A, “Transdermal antisecretory agents for gastrointestinal disease” (The Upjohn Company, priority 1990, dated 1992)

Assays:
[1] = tested on: (H^+ -K^+) ATPase; experiment: Transdermal application to backs of rats, (H+-K+) ATPase activity in fundic gastric mucosal microsomes (K+-dependent ATP-hydrolysis); type: in vivo, rat
Procedure: (§1) The animals were allowed to rest for varying amounts of time and then the inhibition of (H^+ -K^+) ATPase, the enzyme responsible for gastric acid secretion, was measured.
(§2) For each of the following examples the drug dilutions were prepared in DMSO to a final concentration of 150 mg/ml. The drug was made fresh prior to each application.
(§3) The inhibition of (H^+ -K^+) ATPase activity was determined as described by Im, W. B.; Blalkeman, D. P., "Inhibitiion of Gastric pH^+ -K^+) ATPase by Unsaturated Long Chain Fatty Acids" Biochem. et Biophy. […] For the rat models, fundic gastric mucosal microsomes were prepared and (H^+ -K^+) ATPase activity in the microsomes was estimated by measuring K^+ -dependent ATP-hydrolysis.
(§4) Male, Upjohn Sprague Dawley rats were anesthetized with sodium pentobarbital and their dorsal hair removed with the depilatory NAIR. Care was taken to prevent abrasions which might result from hair removal. The animals were returned to their cages and allowed to recover for twenty-four hours. The rats were then fasted overnight in metal restraining tubes without water prior to treatment. 2-(4-ethylthio-3-methylpyridin-2-yl methyl)sulfinyl-benzimidazole at 0 or 100 mg/kg was applied to the backs of the rats and spread with an Eppendorf pipette tip. The same volume of DMSO alone was applied after 2 hrs to all animals. The rats were evaluated 5 or 30 hours after the initial dose for determination of (H^+ -K^+) ATPase activity.
as §4, with “Omeprazole” for “2-(4-ethylthio-3-methylpyridin-2-yl methyl)sulfinyl-benzimidazole”
(§5) Additional volumes (100 μl) of DMSO were spread over the treatment area one time (after two hours) or four times (after one, two, three and four hours). The animals were evaluated 5 hours after the initial dose for determination of (H^+ -K^+) ATPase activity.
(§6) Additional volumes (100 μl) of DMSO were spread over the treatment area after 2, 5, and 7 hours. The animals were evaluated 24 hours after the initial dose for determination of (H^+ -K^+) ATPase activity.

[2] = as above; type: in vivo, rat; conditions: rat, in vivo, topical or ocular, transdermal, lowest dose 25 mg/kg, read-out: fraction of the lowest dose absorbed
Procedure: as §1, §2, §3, §4
as §4, with “Omeprazole” for “2-(4-ethylthio-3-methylpyridin-2-yl methyl)sulfinyl-benzimidazole”
as §5, §6

[3] = Signs of irritation after transdermal application; type: in vivo; conditions: rabbit ears, transdermal 100 mg/kg in DMSO
Procedure: (§7) Male, New Zealand White rabbits were fasted overnight without water in their cages prior to treatment. The same compound as used in Example 1 was applied at 0 or 100 mg/kg in divided doses (1/2 to each ear) to naive rabbit ears. The rabbits received an additional application of DMSO to the treatment area after 1, 3, 5, 7, 24 and 25 hrs. The rabbits were evaluated 30 hrs after the initial dose for determination of (H^+ -K^+) ATPase activity.

[4] = tested on: (H^+ -K^+) ATPase; experiment: Transdermal application to rabbit ears, (H+-K+) ATPase activity in fundic mucosa; type: in vivo; conditions: rabbits, transdermal 100 mg/kg divided to both ears, DMSO after 1, 3, 5, 7, 24 and 25 hrs, evaluated 30 hrs after dose
Procedure: as §1, §2
The inhibition of (H^+ -K^+) ATPase activity was determined as described by Im, W. B.; Blalkeman, D. P., "Inhibitiion of Gastric pH^+ -K^+) ATPase by Unsaturated Long Chain Fatty Acids" Biochem. et Biophy. Acta 692:355-60 (1982). For the rat models, fundic gastric mucosal microsomes were prepared and (H^+ -K^+) ATPase activity in the microsomes was estimated by measuring K^+ -dependent ATP-hydrolysis.
For the rabbit models, mucosa from the fundic region was removed by blunt dissection and minced with scissors. 2.5 g of the minced tissue was placed in 25 ml of buffer containing 250 mM sucrose, 2 mM MgCl2, 1 mM EGTA, and 2 mM Hepes/Tris, pH 7.4. The tissues were then prepared as described for the rat gastric mucosa.
as §7, with “The rabbits received an additional application of DMSO to the treatment area after 1, 3, 5, 7, 24 and 25 hrs.” left out

SMILES: CCSc1ccnc(C[S+]([O-])c2nc3ccccc3[nH]2)c1C (centres unmarked) [2-(4-ethylthio-3-methylpyridin-2-ylmethyl)sulfinyl-benzimidazole]
- reduction of (H^+ -K^+) ATPase activity from control ([1]; transdermal 100 mg/kg in DMSO, DMSO alone after 2 hrs, evaluated 5 or 30 hours after dose (activity did not change with time)): 60-65%
- additional reduction of (H^+ -K^+) ATPase activity by additional applications of DMSO ([1]; transdermal 100 mg/kg, four wipes of DMSO (1, 2, 3, 4 hours) versus one wipe, 5 hours): 16%
- reduction of (H^+ -K^+) ATPase activity ([1]; transdermal 100 mg/kg, four wipes of DMSO (1, 2, 3, 4 hours), 5 hours): 81%
- reduction of (H^+ -K^+) ATPase activity from control ([1]; transdermal 100 mg/kg, one DMSO wipe after two hours, evaluated 5 hours after dose (Example 3)): 65%
- reduction of (H^+ -K^+) ATPase activity ([1]; transdermal 200 mg/kg, one wipe of DMSO after two hours, 5 hours): 72%
- reduction in (H^+ -K^+) ATPase from the control ([1]; transdermal 25, 50 or 100 mg/kg (maximum even at the lower dose), DMSO after 2, 5 and 7 hours, evaluated 24 hours after dose): ~50%
- Fa [2]: ≥ 4%
- signs of irritation [3]: no signs of irritation were observed
- reduction of (H^+ -K^+) ATPase activity from control [4]: 87%

SMILES: COc1ccc2[nH]c([S+]([O-])Cc3ncc(C)c(OC)c3C)nc2c1 (centres unmarked) [omeprazole, reference compound]
- reduction of (H^+ -K^+) ATPase activity as compared to the control ([1]; transdermal 100 mg/kg in DMSO, DMSO alone after 2 hrs, after 5 hours): 35%
- reduction of (H^+ -K^+) ATPase activity as compared to the control ([1]; transdermal 100 mg/kg in DMSO, DMSO alone after 2 hrs, after 30 hours): 27%
